One assay has as its target T1, ER-α in MCF-7 cells (Homo sapiens, UniProt P03372).
T1 construct: endogenous in cells; host or cells: MCF-7
T1 sequence (P03372 1-595): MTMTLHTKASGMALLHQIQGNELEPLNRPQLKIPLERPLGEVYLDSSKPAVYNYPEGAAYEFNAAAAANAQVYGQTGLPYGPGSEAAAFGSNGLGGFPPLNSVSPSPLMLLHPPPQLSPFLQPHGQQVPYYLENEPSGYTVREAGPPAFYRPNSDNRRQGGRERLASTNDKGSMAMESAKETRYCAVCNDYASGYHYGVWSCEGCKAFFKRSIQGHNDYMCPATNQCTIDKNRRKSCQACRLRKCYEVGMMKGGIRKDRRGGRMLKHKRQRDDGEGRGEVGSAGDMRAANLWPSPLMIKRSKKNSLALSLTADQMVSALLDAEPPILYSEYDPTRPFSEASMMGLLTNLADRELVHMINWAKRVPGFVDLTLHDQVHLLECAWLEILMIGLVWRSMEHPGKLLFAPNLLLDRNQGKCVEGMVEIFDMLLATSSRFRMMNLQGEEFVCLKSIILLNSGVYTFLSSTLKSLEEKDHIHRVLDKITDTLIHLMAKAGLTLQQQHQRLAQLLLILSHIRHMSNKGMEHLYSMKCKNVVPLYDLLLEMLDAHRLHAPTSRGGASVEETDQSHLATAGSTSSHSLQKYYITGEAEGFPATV
As to the kind of experiment: Breast Cancer Cell ER-α In Cell Western Assay (SP1). The class given is cell-based. The following applies: 4 or 24 hr post compound addition; for Emax: MCF7, SP1 antibody, read-out: ER-α In Cell Western Assay (SP1) Max Response; for DC50: SP1 antibody, read-out: ER-α In Cell Western Assay (SP1) IC50. Put shortly: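 MCF-7 cells in charcoal-stripped FBS medium, treated with 11-point semilog dilutions (0.3–0.000003 μM final) for 4 or 24 h. Fixed cells immunostained with SP1 antibody (800 nm) and DRAQ5 DNA (700 nm); ER/DNA ratio expressed as % of untreated cells.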

A further assay deals with MCF-7 cells. In words: Breast Cancer Cell Viability Assays (MCF-7, CellTiter-Glo). The note with it: 5 days' compound exposure; for IC50: Homo sapiens, MCF7, 120 h. In kind it is cell-based. In a few lines:
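MCF-7 cells (320/well, RPMI with 10% FBS) exposed for 5 days to an eleven-point semilog series, 0.3–0.000003 μM final. Viability read by CellTiter-Glo luminescence, expressed as background-corrected percent of untreated cells.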

Experimental findings from US9499538B2, “Estrogen receptor modulators and uses thereof” (Seragon Pharmaceuticals, Inc., priority 2012, dated 2016) are described below.

One may read the IC50 as the midpoint of a concentration-inhibition curve. A higher IC50 goes with weaker potency.

The structures appear in SMILES notation. Some results are limits rather than exact numbers.

As to `O=C(O)/C=C/c1ccc(/C(=C(\c2cccc(-n3cccn3)c2)C2CCC2)c2ccc3[nH]nc(F)c3c2)cc1` [Example 84, (E)-3-(4-((E)-2-(3-(1H-Pyrazol-1-yl)phenyl)-2-cyclobutyl-1-(3-fluoro-1H-indazol-5-yl)vinyl)phenyl)acrylic acid], at ER-α in MCF-7 cells, the Emax is ≥ 40% and the DC50 was ≤ 100 nM. In addition, in the assay with MCF-7 cells, the “MCF7 Viability Assay Max Response” value is reported as “++ (++ = a single % value ≧ 40%)” and the IC50 is ≤ 100 nM.
Consider `COc1cc(C)c(/C(=C(\c2ccc(/C=C/C(=O)O)cc2)c2ccc3scnc3c2)C2CCC2)cn1` [Example 85, (E)-3-(4-((E)-1-(Benzo[d]thiazol-5-yl)-2-cyclobutyl-2-(6-methoxy-4-methylpyridin-3-yl)vinyl)phenyl)acrylic acid], for which, on ER-α in MCF-7 cells, the Emax was ≥ 40% and the DC50 is ≤ 100 nM. Further, in the assay on MCF-7 cells, the “MCF7 Viability Assay Max Response” value is reported as “++ (++ = a single % value ≧ 40%)” and the IC50 was ≤ 100 nM.
For `Cc1sccc1/C(=C(\c1ccc(/C=C/C(=O)O)cc1)c1ccc2scnc2c1)C1CCC1` [Example 86, (E)-3-(4-((E)-1-(Benzo[d]thiazol-5-yl)-2-cyclobutyl-2-(2-methylthiophen-3-yl)vinyl)phenyl)acrylic acid], at ER-α in MCF-7 cells, the Emax is ≥ 40% and the DC50 was ≤ 100 nM. Moreover, in the assay on MCF-7 cells, the “MCF7 Viability Assay Max Response” value is “++ (++ = a single % value ≧ 40%)” and the IC50 was ≤ 100 nM.
On to `O=C(O)/C=C/c1ccc(/C(=C(\c2cccc(N3CCCC3)c2)C2CCC2)c2ccc3[nH]nc(F)c3c2)cc1` [Example 87, (E)-3-(4-((E)-2-Cyclobutyl-1-(3-fluoro-1H-indazol-5-yl)-2-(3-(pyrrolidin-1-yl)phenyl)vinyl)phenyl)acrylic acid], for which, at ER-α in MCF-7 cells, the Emax was ≥ 40% and the DC50 was ≤ 100 nM. Besides, in the assay on MCF-7 cells, the “MCF7 Viability Assay Max Response” value was “++ (++ = a single % value ≧ 40%)” and the IC50 is ≤ 100 nM.
`N#Cc1cscc1/C(=C(\c1ccc(/C=C/C(=O)O)cc1)c1ccc2scnc2c1)C1CCC1` [Example 88, (E)-3-(4-((E)-1-(Benzo[d]thiazol-5-yl)-2-(4-cyanothiophen-3-yl)-2-cyclobutylvinyl)phenyl)acrylic acid]: on ER-α in MCF-7 cells, the Emax is ≥ 40% and the DC50 was ≤ 100 nM. Further, in the assay with MCF-7 cells, the “MCF7 Viability Assay Max Response” value is recorded as “++ (++ = a single % value ≧ 40%)” and the IC50 was ≤ 100 nM.
`COc1nccc(/C(=C(\c2ccc(/C=C/C(=O)O)cc2)c2ccc3[nH]nc(F)c3c2)C2CCC2)c1C` [Example 89, (E)-3-(4-((E)-2-Cyclobutyl-1-(3-fluoro-1H-indazol-5-yl)-2-(2-methoxy-3-methylpyridin-4-yl)vinyl)phenyl)acrylic acid]: on ER-α in MCF-7 cells, the Emax was ≥ 40% and the DC50 is ≤ 100 nM. Moreover, in the assay with MCF-7 cells, the “MCF7 Viability Assay Max Response” value is “++ (++ = a single % value ≧ 40%)” and the IC50 was ≤ 100 nM.
`N#Cc1cc(F)ccc1/C(=C(\c1ccc(/C=C/C(=O)O)cc1)c1ccc2scnc2c1)C1CCC1` [Example 90, (E)-3-(4-((E)-1-(Benzo[d]thiazol-5-yl)-2-(2-cyano-4-fluorophenyl)-2-cyclobutylvinyl)phenyl)acrylic acid]: at ER-α in MCF-7 cells, the Emax is ≥ 40% and the DC50 is ≤ 100 nM. Besides, in the assay on MCF-7 cells, the “MCF7 Viability Assay Max Response” value is listed as “++ (++ = a single % value ≧ 40%)” and the IC50 was ≤ 100 nM.
Take `COc1ccc(/C(=C(\c2ccc(/C=C/C(=O)O)cc2)c2ccc3scnc3c2)C2CCC2)cc1` [Example 91, (E)-3-(4-((E)-1-(Benzo[d]thiazol-5-yl)-2-cyclobutyl-2-(4-methoxyphenyl)vinyl)phenyl)acrylic acid]: on ER-α in MCF-7 cells, the Emax was ≥ 40% and the DC50 was ≤ 100 nM. Further, in the assay with MCF-7 cells, the “MCF7 Viability Assay Max Response” value is given as “++ (++ = a single % value ≧ 40%)” and the IC50 was ≤ 100 nM.
In the case of `COc1cccc(/C(=C(\c2ccc(/C=C/C(=O)O)cc2)c2ccc3scnc3c2)C2CCC2)c1` [Example 92, (E)-3-(4-((E)-1-(Benzo[d]thiazol-5-yl)-2-cyclobutyl-2-(3-methoxyphenyl)vinyl)phenyl)acrylic acid], on ER-α in MCF-7 cells, the Emax was ≥ 40% and the DC50 is ≤ 100 nM. Also, in the assay on MCF-7 cells, the “MCF7 Viability Assay Max Response” value is reported as “++ (++ = a single % value ≧ 40%)” and the IC50 was ≤ 100 nM.
As for `COc1ccc(/C(=C(\c2ccc(/C=C/C(=O)O)cc2)c2ccc3scnc3c2)C2CCC2)cn1` [Example 93, (E)-3-(4-((E)-1-(Benzo[d]thiazol-5-yl)-2-cyclobutyl-2-(6-methoxypyridin-3-yl)vinyl)phenyl)acrylic acid], at ER-α in MCF-7 cells, the Emax was ≥ 40% and the DC50 was ≤ 100 nM. Also, in the assay on MCF-7 cells, the “MCF7 Viability Assay Max Response” value was “++ (++ = a single % value ≧ 40%)” and the half-inhibitory concentration (IC50) is ≤ 100 nM.
With `O=C(O)/C=C/c1ccc(/C(=C(\c2ccccc2F)C2CCC2)c2ccc3scnc3c2)cc1` [Example 94, (E)-3-(4-((E)-1-(Benzo[d]thiazol-5-yl)-2-cyclobutyl-2-(2-fluorophenyl)vinyl)phenyl)acrylic acid], on ER-α in MCF-7 cells, the Emax is ≥ 40% and the DC50 is ≤ 100 nM. Besides, in the assay with MCF-7 cells, the “MCF7 Viability Assay Max Response” value is recorded as “++ (++ = a single % value ≧ 40%)” and the IC50 is ≤ 100 nM.
In the case of `N#Cc1ccc(/C(=C(\c2ccc(/C=C/C(=O)O)cc2)c2ccc3scnc3c2)C2CCC2)c(F)c1` [Example 95, (E)-3-(4-((E)-1-(Benzo[d]thiazol-5-yl)-2-(4-cyano-2-fluorophenyl)-2-cyclobutylvinyl)phenyl)acrylic acid], at ER-α in MCF-7 cells, the Emax is ≥ 40% and the DC50 was ≤ 100 nM. Besides, in the assay on MCF-7 cells, the “MCF7 Viability Assay Max Response” value was “++ (++ = a single % value ≧ 40%)” and the IC50 is ≤ 100 nM.
Turning to `Cc1cc(C#N)ccc1/C(=C(\c1ccc(/C=C/C(=O)O)cc1)c1ccc2scnc2c1)C1CCC1` [Example 96, (E)-3-(4-((E)-1-(Benzo[d]thiazol-5-yl)-2-(4-cyano-2-methylphenyl)-2-cyclobutylvinyl)phenyl)acrylic acid], at ER-α in MCF-7 cells, the Emax was ≥ 40% and the DC50 was ≤ 100 nM. In the assay with MCF-7 cells, the “MCF7 Viability Assay Max Response” value was “++ (++ = a single % value ≧ 40%)” and the IC50 was ≤ 100 nM.
Take `COc1ccc(/C(=C(\c2ccc(/C=C/C(=O)O)cc2)c2ccc3scnc3c2)C2CCC2)c(C#N)c1` [Example 97, (E)-3-(4-((E)-1-(Benzo[d]thiazol-5-yl)-2-(2-cyano-4-methoxyphenyl)-2-cyclobutylvinyl)phenyl)acrylic acid]: at ER-α in MCF-7 cells, the Emax was ≥ 40% and the DC50 is ≤ 100 nM. Moreover, in the assay on MCF-7 cells, the “MCF7 Viability Assay Max Response” value is recorded as “++ (++ = a single % value ≧ 40%)” and the IC50 was ≤ 100 nM.
Take `Cc1cccnc1/C(=C(\c1ccc(/C=C/C(=O)O)cc1)c1ccc2scnc2c1)C1CCC1` [Example 98, (E)-3-(4-((E)-1-(Benzo[d]thiazol-5-yl)-2-cyclobutyl-2-(3-methylpyridin-2-yl)vinyl)phenyl)acrylic acid]: at ER-α in MCF-7 cells, the Emax was ≥ 40% and the DC50 was ≤ 100 nM. In addition, in the assay with MCF-7 cells, the “MCF7 Viability Assay Max Response” value is “++ (++ = a single % value ≧ 40%)” and the IC50 was ≤ 100 nM.
Regarding `O=C(O)/C=C/c1ccc(/C(=C(\c2ncccc2F)C2CCC2)c2ccc3scnc3c2)cc1` [Example 99, (E)-3-(4-((E)-1-(Benzo[d]thiazol-5-yl)-2-cyclobutyl-2-(3-fluoropyridin-2-yl)vinyl)phenyl)acrylic acid], on ER-α in MCF-7 cells, the Emax was ≥ 40% and the DC50 was ≤ 100 nM. Moreover, in the assay with MCF-7 cells, the “MCF7 Viability Assay Max Response” value is listed as “++ (++ = a single % value ≧ 40%)” and the IC50 is ≤ 100 nM.
As to `O=C(O)/C=C/c1ccc(/C(=C(\c2ncccc2Cl)C2CCC2)c2ccc3scnc3c2)cc1` [Example 100, (E)-3-(4-((E)-1-(Benzo[d]thiazol-5-yl)-2-(3-chloropyridin-2-yl)-2-cyclobutylvinyl)phenyl)acrylic acid], at ER-α in MCF-7 cells, the Emax was ≥ 40% and the DC50 is ≤ 100 nM. In the assay on MCF-7 cells, the “MCF7 Viability Assay Max Response” value was “++ (++ = a single % value ≧ 40%)” and the IC50 was ≤ 100 nM.
Turning to `CC/C(=C(/c1ccc(/C=C/C(=O)O)cc1)c1ccc2[nH]nc(F)c2c1)c1ccc(Cl)cc1C#N` [Example 101, (E)-3-(4-((E)-2-(4-Chloro-2-cyanophenyl)-1-(3-fluoro-1H-indazol-5-yl)but-1-en-1-yl)phenyl)acrylic acid], at ER-α in MCF-7 cells, the Emax is ≥ 40% and the DC50 is ≤ 100 nM. In addition, in the assay with MCF-7 cells, the “MCF7 Viability Assay Max Response” value is on record as “++ (++ = a single % value ≧ 40%)” and the IC50 is ≤ 100 nM.
